# Where a name gives a salt, the structure may show the parent alone. Read-outs that look alike come from different tables or passages of the source.
# Target: T1, human cloned 5-HT6 receptors (Homo sapiens, UniProt P50406)
# T1 construct: expressed in transfected cells
# Assay: 5-HT6 receptor affinity (procedures outlined in WO 98/27081)
# Type: binding
# [1] = human cloned 5-HT6 receptors, procedures of WO 98/27081, read-out: pKi at human cloned 5-HT6 receptors (converted)
# T1 sequence (P50406 whole entry): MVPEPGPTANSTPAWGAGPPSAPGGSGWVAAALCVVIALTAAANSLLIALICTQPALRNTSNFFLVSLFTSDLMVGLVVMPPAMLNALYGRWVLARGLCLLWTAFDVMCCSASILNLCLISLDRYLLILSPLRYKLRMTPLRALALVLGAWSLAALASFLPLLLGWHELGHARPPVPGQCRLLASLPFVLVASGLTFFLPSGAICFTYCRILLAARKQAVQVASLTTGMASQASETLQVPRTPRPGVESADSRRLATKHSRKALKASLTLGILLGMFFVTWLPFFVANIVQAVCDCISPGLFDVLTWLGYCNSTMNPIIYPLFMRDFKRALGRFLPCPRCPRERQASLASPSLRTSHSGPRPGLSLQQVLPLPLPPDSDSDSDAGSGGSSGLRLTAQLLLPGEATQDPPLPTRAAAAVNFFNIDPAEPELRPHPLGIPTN
Ki [1],Compound,Ki
,O=S(=O)(c1cccc(F)c1)n1ccc2c(N3CCNCC3)cccc21 [Example E22],0.2 to 1.58 nM
,O=S(=O)(c1cccc2nsnc12)n1ccc2c(N3CCNCC3)cccc21 [Example E40],0.2 to 1.58 nM
,O=S(=O)(c1c(Cl)cccc1Cl)n1ccc2c(N3CCNCC3)cccc21 [Example E70],0.2 to 1.58 nM
0.2 to 1.58 nM,"O=S(=O)(c1ccc2ccccc2c1)n1ccc2c(N3CCNCC3)c(Cl)ccc21 [Example E77, 5-Chloro-1-(naphthalene-2-sulfonyl)-4-piperazin-1-yl-1H-indole trifluoroacetic acid salt]",
0.2 to 1.58 nM,"COc1c(Cl)cc(Cl)cc1S(=O)(=O)n1ccc2c(N3CCNCC3)c(Cl)ccc21 [Example E78, 5-Chloro-1-(3,5-dichloro-2-methoxybenzenesulfonyl)-4-piperazin-1-yl-1H-indole trifluoroacetic acid salt]",
,"COc1ccc2c(ccn2S(=O)(=O)c2ccc(C)cc2)c1N1CCNCC1 [Example E80, 5-Methoxy-4-(piperazin-1-yl)-1-(toluene-4-sulfonyl)-1H-indole]",0.2 to 1.58 nM
0.2 to 1.58 nM,CN1CCN(c2cccc3c2ccn3S(=O)(=O)c2cccc(Br)c2)CC1 [Example E82],
0.2 to 1.58 nM,CN1CCN(c2cccc3c2ccn3S(=O)(=O)c2cc(Br)c(Cl)s2)CC1 [Example E85],
0.2 to 1.58 nM,CN1CCN(c2cccc3c2ccn3S(=O)(=O)c2cccc(Cl)c2)CC1 [Example E87],
0.2 to 1.58 nM,CN1CCN(c2cccc3c2ccn3S(=O)(=O)c2ccc3ccccc3c2)CC1 [Example E90],
0.2 to 1.58 nM,CN1CCN(c2cccc3c2ccn3S(=O)(=O)c2ccccc2C(F)(F)F)CC1 [Example E91],
0.2 to 1.58 nM,CN1CCN(c2cccc3c2ccn3S(=O)(=O)c2cccc(C(F)(F)F)c2)CC1 [Example E93],
0.2 to 1.58 nM,CN1CCN(c2cccc3c2ccn3S(=O)(=O)c2ccccc2)CC1 [Example E94],
,CN1CCN(c2cccc3c2ccn3S(=O)(=O)c2cccs2)CC1 [Example E98],0.2 to 1.58 nM
0.2 to 1.58 nM,CN1CCN(c2cccc3c2ccn3S(=O)(=O)c2cc(Cl)cc(Cl)c2)CC1 [Example E99],
0.2 to 1.58 nM,CN1CCN(c2cccc3c2ccn3S(=O)(=O)c2ccc(F)c(Cl)c2)CC1 [Example E100],
0.2 to 1.58 nM,CN1CCN(c2cccc3c2ccn3S(=O)(=O)c2ccccc2Br)CC1 [Example E103],
,O=S(=O)(c1cccc(Br)c1)n1ccc2c(N3CCNCC3)cccc21 [Example E107],0.2 to 1.58 nM
,O=S(=O)(c1cccc(Cl)c1)n1ccc2c(N3CCNCC3)cccc21 [Example E111],0.2 to 1.58 nM
,Cc1ccc(S(=O)(=O)n2ccc3c(N4CCNCC4)cccc32)cc1Cl [Example E112],0.2 to 1.58 nM
,O=S(=O)(c1ccc(Br)cc1)n1ccc2c(N3CCNCC3)cccc21 [Example E113],0.2 to 1.58 nM
0.2 to 1.58 nM,O=S(=O)(c1ccccc1C(F)(F)F)n1ccc2c(N3CCNCC3)cccc21 [Example E115],
,O=[N+]([O-])c1cccc(S(=O)(=O)n2ccc3c(N4CCNCC4)cccc32)c1 [Example E119],0.2 to 1.58 nM
,O=S(=O)(c1cccs1)n1ccc2c(N3CCNCC3)cccc21 [Example E121],0.2 to 1.58 nM
,O=S(=O)(c1ccc(F)c(Cl)c1)n1ccc2c(N3CCNCC3)cccc21 [Example E123],0.2 to 1.58 nM
,O=S(=O)(c1ccccc1Br)n1ccc2c(N3CCNCC3)cccc21 [Example E126],0.2 to 1.58 nM

Ki [1],Compound,Ki
,"O=S(=O)(c1cc(F)cc(F)c1Cl)n1ccc2c(N3CCNCC3)cccc21 [Example E131, 1-(2-Chloro-3,5-difluorobenzenesulfonyl)-4-piperazin-1-yl-1H-indole]",0.2 to 1.58 nM
,"O=S(=O)(c1cccc(Cl)c1)n1ccc2c(N3CCNCC3)c(Cl)ccc21 [Example E132, 5-Chloro-1-(3-chlorobenzenesulfonyl)-4-piperazin-1-yl-1H-indole hydrochloride]",0.2 to 1.58 nM
,"O=S(=O)(c1ccccc1)n1ccc2c(N3CCNCC3)c(Cl)ccc21 [Example E135, 1-(Benzenesulfonyl)-5-chloro-4-piperazin-1-yl-1H-indole hydrochloride]",0.2 to 1.58 nM
,"O=S(=O)(c1ccccc1Br)n1ccc2c(N3CCNCC3)c(Cl)ccc21 [Example E137, 1-(2-Bromobenzenesulfonyl)-5-chloro-4-piperazin-1-yl-1H-indole hydrochloride]",0.2 to 1.58 nM
0.2 to 1.58 nM,"O=S(=O)(c1cccc(C(F)(F)F)c1)n1ccc2c(N3CCNCC3)c(Cl)ccc21 [Example E139, 5-Chloro-1-(3-trifluoromethyl-benzenesulfonyl)-4-piperazin-1-yl-1H-indole hydrochloride]",
,"Cc1cccc(S(=O)(=O)n2ccc3c(N4CCNCC4)c(Cl)ccc32)c1 [Example E140, 5-Chloro-1-(3-methylbenzenesulfonyl)-4-piperazin-4-yl-1H-indole hydrochloride]",0.2 to 1.58 nM
,"O=S(=O)(c1ccccn1)n1ccc2c(N3CCNCC3)c(Cl)ccc21 [Example E149, 5-Chloro-1-(pyridine-2-sulfonyl)-4-piperazin-4-yl-1H-indole hydrochloride]",0.2 to 1.58 nM
,"O=S(=O)(c1cccc(Cl)c1)n1cc(Cl)c2c(N3CCNCC3)cccc21 [Example E151, 3-Chloro-1-(3-chlorobenzenesulfonyl)4-piperazin-1-yl-1H-indole hydrochloride]",0.2 to 1.58 nM
,"O=S(=O)(c1cccc(Cl)c1)n1ccc2c(N3CCNCC3)ccc(Cl)c21 [Example E152, 7-Chloro-1-(3-chlorobenzenesulfonyl)-4-piperazin-1-yl-1H-indole hydrochloride]",0.2 to 1.58 nM
,"O=S(=O)(c1cc(Cl)cc(Cl)c1)n1ccc2c(N3CCNCC3)ccc(Cl)c21 [Example E153, 7-Chloro-1-(3,5-dichlorobenzenesulfonyl)-4-piperazin-1-yl-1H-indole hydrochloride]",0.2 to 1.58 nM
,"O=S(=O)(c1ccccc1)n1ccc2c(N3CCNCC3)ccc(Cl)c21 [Example E154, 1-Benzenesulfonyl-7-choro-4-piperazin-1-yl-1H-indole hydrochloride]",0.2 to 1.58 nM
,"O=S(=O)(c1cccc(Cl)c1)n1ccc2c(N3CCNCC3)ccc(Br)c21 [Example E156, 7-Bromo-1-(3-chlorobenzenesulfonyl)-4-piperazin-1-yl-1H-indole hydrochloride]",0.2 to 1.58 nM
,"N#Cc1ccc(N2CCNCC2)c2ccn(S(=O)(=O)c3cccc(Cl)c3)c12 [Example E157, 7-Cyano-1-(3-chlorobenzenesulfonyl)-4-piperazin-1-yl-1H-indole hydrochloride]",0.2 to 1.58 nM
,"O=S(=O)(c1cccc(Cl)c1)n1cc(Cl)c2c(N3CCNCC3)c(Cl)ccc21 [Example E158, 1-(3-Chlorobenzenesulfonyl)-3,5-dichloro-4-piperazin-1-yl-1H-indole hydrochloride]",0.2 to 1.58 nM
,"O=S(=O)(c1cccc(Cl)c1)n1ccc2c(N3CCNCC3)c(Cl)cc(Cl)c21 [Example E159, 1-(3-Chlorobenzenesulfonyl)-5,7-dichloro piperazin-1-yl-1H-indole hydrochloride]",0.2 to 1.58 nM
,"O=S(=O)(c1cccc(Cl)c1)n1ccc2c(N3CCNCC3)c(F)ccc21 [Example E163, 1-(3-Chlorobenzenesulfonyl)-5-fluoro-4-piperazin-1-yl-1H-indole hydrochloride]",0.2 to 1.58 nM
,"Cc1cc2c(N3CCNCC3)cccc2n1S(=O)(=O)c1cccc(Cl)c1 [Example E165, 1-(3-Chlorobenzenesulfonyl)-2-methyl-4-piperazin-1-yl-1H-indole hydrochloride]",0.2 to 1.58 nM
,"O=S(=O)(c1cccc(Cl)c1)n1ccc2c(N3CCNCC3)cc(Cl)cc21 [Example E166, 6-Chloro-1-(3-chlorobenzenesulfonyl)-4-piperazin-1-yl-1H-indole hydrochloride]",0.2 to 1.58 nM
,"Cc1cn(S(=O)(=O)c2cccc(Cl)c2)c2cccc(N3CCNCC3)c12 [Example E167, 1-(3-Chlorobenzenesulfonyl)-3-methyl-4-piperazin-1-yl-1H-indole hydrochloride]",0.2 to 1.58 nM
0.2 to 1.58 nM,"O=S(=O)(c1ccc(Cl)cc1OC(F)(F)F)n1ccc2c(N3CCNCC3)cccc21 [Example E168, 1-(4-Chloro-2-trifluoromethoxybenzenesulfonyl)-4-piperazin-1-yl-1H-indole hydrochloride]",
0.2 to 1.58 nM,"N#Cc1cc(Br)ccc1S(=O)(=O)n1ccc2c(N3CCNCC3)c(Cl)ccc21 [Example E170, 1-(4-Bromo-2-cyanobenzenesulfonyl)-5-chloro-4-piperazin-1-yl-1H-indole hydrochloride]",
,"N#Cc1cc(Br)ccc1S(=O)(=O)n1ccc2c(N3CCNCC3)cccc21 [Example E171, 1-(4-Bromo-2-cyanobenzenesulfonyl)-4-piperazin-1-yl-1H-indole hydrochloride]",0.2 to 1.58 nM
,"COc1ccc2c(ccn2S(=O)(=O)c2cccc(Cl)c2)c1N1CCNCC1 [Example E172, 1-(3-Chlorobenzenesulfonyl)-5-methoxy-4-piperazin-1-yl-1H-indole hydrochloride]",0.2 to 1.58 nM
,"COc1ccc(N2CCNCC2)c2ccn(S(=O)(=O)c3cccc(Cl)c3)c12 [Example E173, 1-(3-Chlorobenzenesulfonyl)-7-methoxy-4-piperazin-1-yl-1H-indole hydrochloride]",0.2 to 1.58 nM
0.2 to 1.58 nM,"O=S(=O)(c1cccc(Cl)c1)n1ccc2c(N3CCCNCC3)ccc(Cl)c21 [Example E175, 7-Chloro-1-(3-chlorobenzenesulfonyl)-4-[1,4]diazepan-1-yl-1H-indole hydrochloride]",
